# Assay results: US10533015B1, “Opioid receptor antagonist prodrugs” (Nirsum Laboratories, Inc., priority 2019, dated 2020)
# Where two headings read alike, the source gives them in different places.
# Key:
# [1] = Liver S9 fraction stability, monkey; assay type: in vitro ADME, cynomolgus monkey; conditions: monkey liver S9, 1.0 mg/ml S9 protein, 2 μM, 37° C.
# Protocol: (§1) Liver S9 fraction stability determination of the test compounds in dog, cynomolgus monkey and human is performed using HPLC-MS. Test compound (2 μM, 0.1% DMSO, 1% Methanol final concentration) was assessed for stability in a 50 μl phosphate buffer containing 1.0 mg/ml S9 protein from each of the three species and 5 mM D-saccharic acid-1, 4-lactone. Samples were incubated at 37° C. for 60 minutes and the % compound remaining was assessed.
# [2] = Liver S9 fraction stability, human; assay type: in vitro ADME; conditions: human liver S9, 1.0 mg/ml S9 protein, 2 μM, 37° C.
# Protocol: as §1
# [3] = Liver S9 fraction stability, dog; assay type: in vitro ADME; conditions: dog liver S9, 1.0 mg/ml S9 protein, 2 μM, 37° C.
# Protocol: as §1
# [4] = Plasma stability assay, dog plasma; assay type: in vitro ADME; conditions: 2 μM, 37° C.
# Protocol: (§2) Plasma stability determination of the test compounds in rat, dog, cynomolgus monkey and human plasma is performed using HPLC-MS. For rat, incubations are carried out in 96-well polypropylene plates in 5 aliquots of 70 μL each (one for each time point). […] Five time points are analyzed (0, 15, 120, 480 and 1440 min). […] All incubations are performed in duplicates. The samples are analyzed by HPLC-MS. The percentage of parent compound remaining after incubation in plasma is determined.
# [5] = Plasma stability assay, monkey plasma; assay type: in vitro ADME, cynomolgus monkey; conditions: 2 μM, 37° C.
# Protocol: as §2
# [6] = Plasma stability assay, human plasma; assay type: in vitro ADME; conditions: 2 μM, 37° C.
# Protocol: as §2
# [7] = Plasma stability assay, rat plasma; assay type: in vitro ADME; conditions: 10 μM, 37° C.
# Procedure, shortened: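 Read-out: percent parent compound remaining, by HPLC-MS, duplicate incubations. Dog/monkey/human: 2 μM test compound, 1% solvent final, 37 °C, time points 0, 10, 30, 60, 120 min. Rat: time points 0, 15, 120, 480, 1440 min.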
# DOR = target: T1, DOR (Homo sapiens, UniProt P41143); assay: Opioid receptor binding assay, DOR ([3H]-DADLE); conditions: MaxDose 10000 nM
# T1 construct: expressed in transfected cells
# Protocol: Receptor binding assays were performed to assess the ability of compounds to inhibit binding to radiolabeled ligand.
# The stable cell lines were established and prepared cell membrane obtained using these cell lines.
# 3) Assay Procedure 1) Transfer 1 μl of specified concentration compound to assay plate according to the plate map for nonspecific binding. Transfer 1 μl of DMSO to assay plate according to plate map for total binding. 2) Follow the plate map. Dispense 99 μl of membrane stocks into the plate. 3) Add 100 μl of radio ligand. 4) Seal the plates. Incubate at RT for 1 hour. 5) Soak the Unifilter-96 GF/C filter plates with 50 μl of 0.3% PEI per well for at least 0.5 hour at room temperature. 6) When binding assays are completed, filter the reaction mixture through GF/C plates using Perkin Elmer Filtermate Harvester, and then wash each plate for 4 times with cold wash buffer. 7) Dry the filter plates for 1 hour at 50 degrees. 8) After drying, seal the bottom of the filter plate wells using Perkin Elmer Unifilter-96 backing seal tape. Add 50 μl of Perkin Elmer Microscint 20 cocktail. Seal top of filter plates with Perkin Elmer TopSeal-A sealing film. 9) Count ^3H trapped on filter using Perkin Elmer MicroBeta2 Reader second day. 10) Analyze the data with GraphPad Prism 5. Calculate the “Inhibition [% Control]” using the equation: % Inh=(1-Background subtracted Assay value/Background subtracted HC value)*100. Results
# physchem = conditions: thermodynamic from solid; for solubility at 24 h: 25 °C, obs. temp. 25 °C; for solubility at 24 h / solubility: heating temp. 60 °C; for solubility: obs. temp. 40 °C
# [8] = heating temp. 40 °C, obs. temp. 40 °C
# [9] = heating temp. 60 °C, obs. temp. 25 °C
# T1 sequence (P41143 whole entry): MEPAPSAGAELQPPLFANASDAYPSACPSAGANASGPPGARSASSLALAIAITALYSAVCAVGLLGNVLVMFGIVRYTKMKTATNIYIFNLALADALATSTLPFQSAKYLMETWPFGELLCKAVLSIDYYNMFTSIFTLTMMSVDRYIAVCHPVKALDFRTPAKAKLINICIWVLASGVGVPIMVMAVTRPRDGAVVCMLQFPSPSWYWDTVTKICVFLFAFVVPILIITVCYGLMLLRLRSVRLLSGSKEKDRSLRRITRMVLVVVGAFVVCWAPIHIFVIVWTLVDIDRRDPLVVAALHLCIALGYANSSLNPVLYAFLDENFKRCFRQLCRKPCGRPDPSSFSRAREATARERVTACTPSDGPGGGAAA
Structure (SMILES),% remaining at 60 minutes [1],% remaining at 60 minutes [2],% remaining at 60 minutes [3],% remaining at time point ([4]; 0 min),% remaining at time point ([4]; 15 min (head)),% remaining at time point ([4]; 120 min (head)),% remaining at time point ([4]; 480 min (head)),% remaining at time point ([4]; 1440 min (head)),% remaining at time point ([5]; 0 min),% remaining at time point ([5]; 15 min (head)),% remaining at time point ([5]; 120 min (head)),% remaining at time point ([5]; 480 min (head)),% remaining at time point ([5]; 1440 min (head)),% remaining at time point ([6]; 0 min),% remaining at time point ([6]; 15 min (head)),% remaining at time point ([6]; 120 min (head)),% remaining at time point ([6]; 480 min (head)),% remaining at time point ([6]; 1440 min (head)),% remaining at time point ([7]; 0 min),% remaining at time point ([7]; 15 min),also measured
"CCCCCCCCCCCC(=O)OCN1C(=O)CCc2ccc(OCCCCN3CCN(c4cccc(Cl)c4Cl)CC3)cc21 [Aripiprazole Lauroxil, reference compound]",56.6%,47.8%,66.1%,100%,103%,81.3%,78.6%,74.3%,100%,95.2%,94.5%,75.5%,83.2%,100%,99.7%,80%,73.2%,75.5%,100%,84%,% remaining at time point ([7]; 120 min): 85.5%; % remaining at time point ([7]; 480 min): 76.4%; % remaining at time point ([7]; 1440 min): 46%
"C=C1CC[C@@]2(O)C3Cc4ccc(OC(=O)CCCCCCC/C=C/CCCCCCCC)c5c4[C@@]2(CCN3CC2CC2)[C@H]1O5 [Compound 15, (4aS,7aS,12bS)-3-(cyclopropylmethyl)-4a-hydroxy-7-methylene-2,3,4,4a,5,6,7,7a-octahydro-1H-4,12-methanobenzofuro[3,2-e]isoquinolin-9-yl (E)-octadec-9-enoate]",76.7%,59.8%,80.9%,100%,82.5%,80.6%,90.1%,86.1%,100%,74.5%,72.7%,80.6%,76.5%,100%,83.3%,82.5%,107.1%,109.0%,100%,72%,"Approximate Solubility (mg/mL) in Excipient: Cottonseed oil [8]: <51 mg/mL; Approximate Solubility (mg/mL) in Excipient: Cottonseed oil [9]: >402.6 mg/mL; Approximate Solubility (mg/mL) in Excipient: Cottonseed oil (heating temp. 60 °C, obs. temp. 40 °C): >401 mg/mL; Approximate Solubility (mg/mL) in Excipient: Ethanol (Ethanol, heating temp. 40 °C, obs. temp. 40 °C): <20 mg/mL; Approximate Solubility (mg/mL) in Excipient: Sesame oil [8]: <52 mg/mL; Approximate Solubility (mg/mL) in Excipient: Sesame oil [9]: >396.5 mg/mL; Equilibrium solubility (mg/mL) Water [8]: <0.0002 mg/mL; % remaining at time point ([7]; 120 min): 69.3%; % remaining at time point ([7]; 480 min): 52%; % remaining at time point ([7]; 1440 min): 35%"
"C=C1CC[C@@]2(O)C3Cc4ccc(OCOC(=O)OCCCCCCCCCCCC)c5c4[C@@]2(CCN3CC2CC2)[C@H]1O5 [Compound 24, (((4aS,7aS,12bS)-3-(cyclopropylmethyl)-4a-hydroxy-7-methylene-2,3,4,4a,5,6,7,7a-octahydro-1H-4,12-methanobenzofuro[3,2-e]isoquinolin-9-yl)oxy)methyl dodecyl carbonate]",3%,3.5%,3.6%,100%,94.7%,104.5%,115.7%,116.2%,100%,90.7%,93.5%,96.2%,97.8%,100%,94%,102.3%,105.3%,112.5%,100%,32%,Approximate Solubility (mg/mL) in Excipient: Cottonseed oil [9]: >403 mg/mL; Approximate Solubility (mg/mL) in Excipient: Sesame oil [9]: 338 to 368 mg/mL; Equilibrium solubility (mg/mL) Water [8]: <0.001 mg/mL; % remaining at time point ([7]; 120 min): 11.8%; % remaining at time point ([7]; 480 min): 8.2%; % remaining at time point ([7]; 1440 min): 3%
"C=C1CC[C@@]2(O)C3Cc4ccc(OC(=O)OCCCCCCCCCCCCCCC)c5c4[C@@]2(CCN3CC2CC2)[C@H]1O5 [Compound 32, (4aS,7aS,12bS)-3-(cyclopropylmethyl)-4a-hydroxy-7-methylene-2,3,4,4a,5,6,7,7a-octahydro-1H-4,12-methanobenzofuro[3,2-e]isoquinolin-9-yl pentadecyl carbonate]",–,–,–,–,–,–,–,–,–,–,–,–,–,–,–,–,–,–,–,–,% Inh@MaxDose (DOR): 43.2%; Approximate Solubility (mg/mL) in Excipient: Cottonseed oil [9]: >395.8 mg/mL; Approximate Solubility (mg/mL) in Excipient: Sesame oil [9]: >410 mg/mL
"C=C1CC[C@@]2(O)C3Cc4ccc(OC(=O)CCCCCCCCCCC)c5c4[C@@]2(CCN3CC2CC2)[C@H]1O5 [Compound 59, (4aS,7aS,12bS)-3-(cyclopropylmethyl)-4a-hydroxy-7-methylene-2,3,4,4a,5,6,7,7a-octahydro-1H-4,12-methanobenzofuro[3,2-e]isoquinolin-9-yl dodecanoate, reference compound]",–,–,–,–,–,–,–,–,–,–,–,–,–,–,–,–,–,–,100%,5.9%,"solubility at 24 h (physchem; oil or lipid, Approximate Solubility (mg/mL) in Excipient: Cottonseed oil, Cottonseed oil): > 414 mg/mL; solubility at 24 h (physchem; oil or lipid, Approximate Solubility (mg/mL) in Excipient: Sesame oil, Sesame oil): > 393 mg/mL; solubility thermodynamic (physchem; 40 °C, water): < 0.001 mg/mL; % remaining at time point ([7]; 120 min): 0.7%; % remaining at time point ([7]; 480 min): 0.2%; % remaining at time point ([7]; 1440 min): 0%"
"CCCCCCCCCCCCCCCC(=O)OC1CCCn2c1nc(C)c(CCN1CCC(c3noc4cc(F)ccc34)CC1)c2=O (stereo not drawn) [Paliperidone palmitate, reference compound]",57.4%,47.8%,56.4%,100%,91.2%,88.4%,95.9%,93.1%,100%,92%,89.5%,98.4%,92.5%,100%,103.7%,97.6%,109.1%,104.1%,–,–,–
"C=C1CC[C@@]2(O)[C@H]3Cc4ccc(O)c5c4[C@@]2(CCN3CC2CC2)[C@H]1O5 [nalmefene, 17-cyclopropylmethyl-4,5α-epoxy-6-methylenemorphinan-3,14-diol]",–,–,–,–,–,–,–,–,–,–,–,–,–,–,–,–,–,–,–,–,"solubility (physchem; 40 °C, oil or lipid, Approximate Solubility (mg/mL) in Excipient: Cottonseed oil, Cottonseed oil): < 25 mg/mL; solubility (physchem; 40 °C, oil or lipid, Approximate Solubility (mg/mL) in Excipient: Sesame oil, Sesame oil): < 25.5 mg/mL; solubility (physchem; 40 °C, organic solvent or mixture, Approximate Solubility (mg/mL) in Excipient: Ethanol, Ethanol): 102 to 137 mg/mL"
